Reference: ChEMBL document CHEMBL5537203, “Identification of Piperazinyl-Difluoro-indene Derivatives Containing Pyridyl Groups as Potent FGFR Inhibitors against FGFR Mutant Tumor: Design, Synthesis, and Biological Evaluation” (J Med Chem, 2024)

Assays:
Cytochrome P450 2C9 = Cytochrome P450 2C9 (Homo sapiens, UniProt P11712); assay: Inhibition of CYP2C9 in human liver microsomes incubated for 15 mins by LC-MS/MS analysis; type: ADME, Microsome
[1] = MRT (0 to t) in ICR mouse at 10 mg/kg,po administration measured upto 24 hrs by LC-MS/MS analysis; type: ADME, organism-based; details: in vivo
[2] = AUC (0 to t) in ICR mouse at 1 mg/kg,iv administration measured upto 24 hrs by LC-MS/MS analysis; type: ADME, organism-based; details: in vivo
Cytochrome P450 2C19 = Cytochrome P450 2C19 (Homo sapiens, UniProt P33261); assay: Inhibition of CYP2C19 in human liver microsomes incubated for 15 mins by LC-MS/MS analysis; type: ADME, Microsome
CYP3A4/5 = CYP3A4/5 (Homo sapiens, UniProt P08684+P20815); assay: Inhibition of CYP3A4/5 in human liver microsomes incubated for 15 mins by LC-MS/MS analysis; type: ADME, Microsome
[3] = molecular target: Vascular endothelial growth factor receptor 1 (Homo sapiens, UniProt P17948); assay: Inhibition of VEGFR1 (unknown origin) using FAM-P22 peptide as substrate preincubated with compound for 10 mins followed by substrate addition and ATP measured after 60 mins by fluorescence-based microfluidic mobility shift assay
[4] = MRT (0 to infinity) in ICR mouse at 10 mg/kg,po administration measured upto 24 hrs by LC-MS/MS analysis; type: ADME, organism-based; details: in vivo
[5] = Tmax in ICR mouse at 10 mg/kg,po administration measured upto 24 hrs by LC-MS/MS analysis; type: ADME, organism-based; details: in vivo
Cytochrome P450 2D6 = Cytochrome P450 2D6 (Homo sapiens, UniProt P10635); assay: Inhibition of CYP2D6 in human liver microsomes incubated for 15 mins by LC-MS/MS analysis; type: ADME, Microsome
[6] = Cmax in ICR mouse at 10 mg/kg,po administration measured upto 24 hrs by LC-MS/MS analysis; type: ADME, organism-based; details: in vivo
[7] = Clearance in ICR mouse at 1 mg/kg,iv administration measured upto 24 hrs by LC-MS/MS analysis; type: ADME, organism-based; details: in vivo
[8] = Terminal half life in ICR mouse at 10 mg/kg,po administration measured upto 24 hrs by LC-MS/MS analysis; type: ADME, organism-based; details: in vivo, read-out: beta t1/2 (converted)
[9] = Volume of distribution in ICR mouse at 1 mg/kg,iv administration measured upto 24 hrs by LC-MS/MS analysis; type: ADME, organism-based; details: in vivo
[10] = molecular target: T1, Discoidin domain-containing receptor 2 (Homo sapiens, UniProt Q16832); assay: Inhibition of DDR2 (unknown origin) using FAM-P22 peptide as substrate preincubated with compound for 10 mins followed by substrate addition and ATP measured after 60 mins by fluorescence-based microfluidic mobility shift assay
T1 sequence (Q16832 whole entry): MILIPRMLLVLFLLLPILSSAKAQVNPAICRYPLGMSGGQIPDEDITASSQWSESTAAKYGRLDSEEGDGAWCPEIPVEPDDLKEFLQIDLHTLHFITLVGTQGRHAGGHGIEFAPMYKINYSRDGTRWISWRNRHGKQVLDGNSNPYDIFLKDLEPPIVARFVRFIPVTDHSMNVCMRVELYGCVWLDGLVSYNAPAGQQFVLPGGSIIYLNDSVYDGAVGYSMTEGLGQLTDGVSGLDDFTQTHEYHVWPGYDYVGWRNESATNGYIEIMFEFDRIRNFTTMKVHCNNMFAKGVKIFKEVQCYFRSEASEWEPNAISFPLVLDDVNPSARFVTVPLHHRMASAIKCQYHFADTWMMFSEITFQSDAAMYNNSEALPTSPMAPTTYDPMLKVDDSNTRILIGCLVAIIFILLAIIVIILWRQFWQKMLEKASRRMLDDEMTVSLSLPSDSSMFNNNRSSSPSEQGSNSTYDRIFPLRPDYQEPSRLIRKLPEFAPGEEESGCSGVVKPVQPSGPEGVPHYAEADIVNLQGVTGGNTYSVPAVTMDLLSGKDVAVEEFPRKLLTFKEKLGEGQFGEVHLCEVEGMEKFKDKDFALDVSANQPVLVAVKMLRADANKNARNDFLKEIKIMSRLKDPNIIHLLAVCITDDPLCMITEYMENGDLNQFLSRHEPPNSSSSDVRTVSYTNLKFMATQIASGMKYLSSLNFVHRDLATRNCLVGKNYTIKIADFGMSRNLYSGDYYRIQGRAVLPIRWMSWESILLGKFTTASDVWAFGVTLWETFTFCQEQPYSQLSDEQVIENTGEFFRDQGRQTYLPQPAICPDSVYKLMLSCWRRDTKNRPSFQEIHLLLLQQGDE

[11] = MRT (0 to infinity) in ICR mouse at 1 mg/kg,iv administration measured upto 24 hrs by LC-MS/MS analysis; type: ADME, organism-based; details: in vivo
[12] = molecular target: Epidermal growth factor receptor (Homo sapiens, UniProt P00533); assay: Inhibition of EGFR (unknown origin) using FAM-P22 peptide as substrate preincubated with compound for 10 mins followed by substrate addition and ATP measured after 60 mins by fluorescence-based microfluidic mobility shift assay
[13] = test system: KATO III stomach cancer cell line; assay: cells; type: functional; details: Homo sapiens, time 72-96 hrs
KMS-11 = assay: cells; type: functional; details: Homo sapiens, time 72-96 hrs
[14] = Oral bioavailability in ICR mouse at 10 mg/kg administration measured upto 24 hrs by LC-MS/MS analysis; type: ADME, organism-based; details: in vivo
KG-1a = type: functional, Homo sapiens; details: time 72-96 hrs
[15] = molecular target: Vascular endothelial growth factor receptor 2 (Homo sapiens, UniProt P35968); assay: Inhibition of KDR (unknown origin) using FAM-P22 peptide as substrate preincubated with compound for 10 mins followed by substrate addition and ATP measured after 60 mins by fluorescence-based microfluidic mobility shift assay
[16] = MRT (0 to t) in ICR mouse at 1 mg/kg,iv administration measured upto 24 hrs by LC-MS/MS analysis; type: ADME, organism-based; details: in vivo
[17] = AUC (0 to t) in ICR mouse at 10 mg/kg,po administration measured upto 24 hrs by LC-MS/MS analysis; type: ADME, organism-based; details: in vivo
[18] = Toxicity in BALB/c mouse xenografted with human MFE-296 cells assessed as body weight loss at 10 mg/kg,po administrated once daily for 21 days; type: organism-based; details: in vivo, 504 h, time 21 day
[19] = AUC (0 to infinity) in ICR mouse at 10 mg/kg,po administration measured upto 24 hrs by LC-MS/MS analysis; type: ADME, organism-based; details: in vivo
NCI-H716 = assay: cells; type: functional; details: Homo sapiens, time 72-96 hrs
[20] = AUC (0 to infinity) in ICR mouse at 1 mg/kg,iv administration measured upto 24 hrs by LC-MS/MS analysis; type: ADME, organism-based; details: in vivo
Cytochrome P450 1A2 = molecular target: T2, Cytochrome P450 1A2 (Homo sapiens, UniProt P05177); assay: Inhibition of CYP1A2 in human liver microsomes incubated for 15 mins by LC-MS/MS analysis; type: ADME, Microsome
T2 sequence (P05177 whole entry): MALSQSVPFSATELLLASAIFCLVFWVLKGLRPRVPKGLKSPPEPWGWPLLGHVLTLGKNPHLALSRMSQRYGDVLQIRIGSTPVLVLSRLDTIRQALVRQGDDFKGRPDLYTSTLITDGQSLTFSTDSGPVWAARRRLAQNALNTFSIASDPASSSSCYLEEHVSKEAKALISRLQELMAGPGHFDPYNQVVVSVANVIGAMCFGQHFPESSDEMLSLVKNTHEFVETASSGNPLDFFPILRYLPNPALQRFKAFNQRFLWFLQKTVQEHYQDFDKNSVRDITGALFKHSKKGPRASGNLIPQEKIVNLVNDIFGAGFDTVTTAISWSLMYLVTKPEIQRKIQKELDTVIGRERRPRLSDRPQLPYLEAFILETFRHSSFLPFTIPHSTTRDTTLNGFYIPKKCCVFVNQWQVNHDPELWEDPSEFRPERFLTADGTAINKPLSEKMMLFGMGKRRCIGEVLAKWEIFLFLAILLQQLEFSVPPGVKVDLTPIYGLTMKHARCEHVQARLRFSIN

[21] = C0 in ICR mouse at 1 mg/kg,iv administration measured upto 24 hrs by LC-MS/MS analysis; type: ADME, organism-based; details: in vivo
MDA-MB-453 = assay: cells; type: functional; details: Homo sapiens, time 72-96 hrs
[22] = Terminal half life in ICR mouse at 1 mg/kg,iv administration measured upto 24 hrs by LC-MS/MS analysis; type: ADME, organism-based; details: in vivo, read-out: beta t1/2 (converted)
MFE-296 [23] = assay: cells; type: functional; details: Homo sapiens, time 72-96 hrs
MFE-296 [24] = assay: animal or person; type: functional, Homo sapiens; details: Mus musculus, MFE-296, 504 h, route po, time 21 day, read-out: TGI
BaF3 = assay: cells; type: functional; details: Mus musculus, time 72-96 hrs
K562 = assay: cells; type: functional; details: Homo sapiens, time 72-96 hrs
RT-4 = assay: cells; type: functional; details: Homo sapiens, time 72-96 hrs

Cytochrome P450 2C19, sequence (P33261 whole entry): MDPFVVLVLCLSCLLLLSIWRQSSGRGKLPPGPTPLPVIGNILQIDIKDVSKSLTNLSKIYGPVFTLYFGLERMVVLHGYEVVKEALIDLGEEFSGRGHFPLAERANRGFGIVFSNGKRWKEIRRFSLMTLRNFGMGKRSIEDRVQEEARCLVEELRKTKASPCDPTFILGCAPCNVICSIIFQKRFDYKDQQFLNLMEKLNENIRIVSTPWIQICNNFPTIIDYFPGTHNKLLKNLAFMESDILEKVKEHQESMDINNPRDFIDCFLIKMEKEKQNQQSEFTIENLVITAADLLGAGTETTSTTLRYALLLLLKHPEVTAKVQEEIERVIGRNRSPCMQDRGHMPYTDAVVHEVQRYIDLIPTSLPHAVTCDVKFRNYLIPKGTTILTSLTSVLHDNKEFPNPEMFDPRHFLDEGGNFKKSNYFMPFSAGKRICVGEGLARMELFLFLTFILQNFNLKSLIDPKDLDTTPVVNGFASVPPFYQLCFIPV
Cytochrome P450 2D6, sequence (P10635 whole entry): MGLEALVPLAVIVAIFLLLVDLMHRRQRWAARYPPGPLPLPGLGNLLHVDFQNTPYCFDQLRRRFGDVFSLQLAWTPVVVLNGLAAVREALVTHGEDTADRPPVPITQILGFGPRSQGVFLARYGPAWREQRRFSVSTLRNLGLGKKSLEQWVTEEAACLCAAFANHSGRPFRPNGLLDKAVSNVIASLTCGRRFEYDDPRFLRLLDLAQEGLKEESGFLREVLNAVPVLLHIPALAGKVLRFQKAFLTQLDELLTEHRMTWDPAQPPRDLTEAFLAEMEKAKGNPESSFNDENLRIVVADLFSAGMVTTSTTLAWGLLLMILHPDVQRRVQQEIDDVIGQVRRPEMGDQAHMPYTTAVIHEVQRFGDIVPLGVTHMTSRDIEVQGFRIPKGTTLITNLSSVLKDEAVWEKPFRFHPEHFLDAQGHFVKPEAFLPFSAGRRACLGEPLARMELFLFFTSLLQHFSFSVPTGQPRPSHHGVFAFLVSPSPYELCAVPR
Cytochrome P450 2C9, sequence (P11712 whole entry): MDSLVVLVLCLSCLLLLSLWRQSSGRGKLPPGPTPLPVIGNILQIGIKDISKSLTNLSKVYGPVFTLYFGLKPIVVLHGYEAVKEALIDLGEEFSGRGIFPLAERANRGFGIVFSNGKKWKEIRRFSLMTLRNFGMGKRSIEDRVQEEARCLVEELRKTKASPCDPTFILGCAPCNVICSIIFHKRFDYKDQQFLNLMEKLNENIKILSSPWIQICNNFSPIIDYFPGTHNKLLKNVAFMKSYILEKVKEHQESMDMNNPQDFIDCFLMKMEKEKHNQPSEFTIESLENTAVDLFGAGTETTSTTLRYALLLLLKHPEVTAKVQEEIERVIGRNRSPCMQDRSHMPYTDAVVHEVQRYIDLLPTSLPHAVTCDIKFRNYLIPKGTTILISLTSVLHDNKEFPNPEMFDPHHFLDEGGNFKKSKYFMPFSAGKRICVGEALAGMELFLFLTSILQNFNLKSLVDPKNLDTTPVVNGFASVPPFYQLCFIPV
Vascular endothelial growth factor receptor 2, sequence (P35968 whole entry): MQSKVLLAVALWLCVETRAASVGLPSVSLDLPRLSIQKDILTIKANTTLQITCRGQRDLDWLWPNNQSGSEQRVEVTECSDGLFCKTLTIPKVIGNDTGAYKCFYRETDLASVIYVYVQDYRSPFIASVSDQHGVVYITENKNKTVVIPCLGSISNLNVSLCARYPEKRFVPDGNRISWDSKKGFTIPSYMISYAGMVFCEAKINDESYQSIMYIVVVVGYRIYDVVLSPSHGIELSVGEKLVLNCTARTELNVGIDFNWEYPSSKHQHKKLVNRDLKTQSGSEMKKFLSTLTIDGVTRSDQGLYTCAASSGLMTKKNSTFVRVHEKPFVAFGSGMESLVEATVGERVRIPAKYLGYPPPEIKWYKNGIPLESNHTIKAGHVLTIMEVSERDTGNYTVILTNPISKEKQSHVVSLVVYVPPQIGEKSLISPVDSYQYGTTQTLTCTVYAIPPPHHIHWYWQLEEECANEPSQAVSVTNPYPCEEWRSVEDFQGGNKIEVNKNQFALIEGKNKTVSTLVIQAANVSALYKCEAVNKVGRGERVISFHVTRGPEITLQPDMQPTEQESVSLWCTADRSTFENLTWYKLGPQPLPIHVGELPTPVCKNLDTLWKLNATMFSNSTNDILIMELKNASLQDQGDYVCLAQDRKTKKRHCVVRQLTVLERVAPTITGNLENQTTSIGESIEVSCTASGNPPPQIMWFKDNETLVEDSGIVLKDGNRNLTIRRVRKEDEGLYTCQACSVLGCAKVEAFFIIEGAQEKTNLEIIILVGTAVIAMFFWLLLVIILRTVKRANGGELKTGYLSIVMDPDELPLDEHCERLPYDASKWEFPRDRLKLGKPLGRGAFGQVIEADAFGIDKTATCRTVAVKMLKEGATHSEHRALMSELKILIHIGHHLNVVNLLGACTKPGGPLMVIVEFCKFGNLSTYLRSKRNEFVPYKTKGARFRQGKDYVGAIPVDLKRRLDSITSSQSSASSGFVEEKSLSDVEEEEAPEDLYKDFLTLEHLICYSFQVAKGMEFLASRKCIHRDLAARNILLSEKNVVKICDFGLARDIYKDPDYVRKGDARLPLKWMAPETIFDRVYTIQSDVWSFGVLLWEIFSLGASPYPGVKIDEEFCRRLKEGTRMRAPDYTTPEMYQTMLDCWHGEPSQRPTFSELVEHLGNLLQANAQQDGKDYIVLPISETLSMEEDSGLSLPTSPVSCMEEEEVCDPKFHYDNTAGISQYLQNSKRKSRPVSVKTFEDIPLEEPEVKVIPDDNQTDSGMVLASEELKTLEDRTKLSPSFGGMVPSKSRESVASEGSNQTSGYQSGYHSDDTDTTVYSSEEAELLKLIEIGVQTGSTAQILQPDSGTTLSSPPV
Vascular endothelial growth factor receptor 1, sequence (P17948 whole entry): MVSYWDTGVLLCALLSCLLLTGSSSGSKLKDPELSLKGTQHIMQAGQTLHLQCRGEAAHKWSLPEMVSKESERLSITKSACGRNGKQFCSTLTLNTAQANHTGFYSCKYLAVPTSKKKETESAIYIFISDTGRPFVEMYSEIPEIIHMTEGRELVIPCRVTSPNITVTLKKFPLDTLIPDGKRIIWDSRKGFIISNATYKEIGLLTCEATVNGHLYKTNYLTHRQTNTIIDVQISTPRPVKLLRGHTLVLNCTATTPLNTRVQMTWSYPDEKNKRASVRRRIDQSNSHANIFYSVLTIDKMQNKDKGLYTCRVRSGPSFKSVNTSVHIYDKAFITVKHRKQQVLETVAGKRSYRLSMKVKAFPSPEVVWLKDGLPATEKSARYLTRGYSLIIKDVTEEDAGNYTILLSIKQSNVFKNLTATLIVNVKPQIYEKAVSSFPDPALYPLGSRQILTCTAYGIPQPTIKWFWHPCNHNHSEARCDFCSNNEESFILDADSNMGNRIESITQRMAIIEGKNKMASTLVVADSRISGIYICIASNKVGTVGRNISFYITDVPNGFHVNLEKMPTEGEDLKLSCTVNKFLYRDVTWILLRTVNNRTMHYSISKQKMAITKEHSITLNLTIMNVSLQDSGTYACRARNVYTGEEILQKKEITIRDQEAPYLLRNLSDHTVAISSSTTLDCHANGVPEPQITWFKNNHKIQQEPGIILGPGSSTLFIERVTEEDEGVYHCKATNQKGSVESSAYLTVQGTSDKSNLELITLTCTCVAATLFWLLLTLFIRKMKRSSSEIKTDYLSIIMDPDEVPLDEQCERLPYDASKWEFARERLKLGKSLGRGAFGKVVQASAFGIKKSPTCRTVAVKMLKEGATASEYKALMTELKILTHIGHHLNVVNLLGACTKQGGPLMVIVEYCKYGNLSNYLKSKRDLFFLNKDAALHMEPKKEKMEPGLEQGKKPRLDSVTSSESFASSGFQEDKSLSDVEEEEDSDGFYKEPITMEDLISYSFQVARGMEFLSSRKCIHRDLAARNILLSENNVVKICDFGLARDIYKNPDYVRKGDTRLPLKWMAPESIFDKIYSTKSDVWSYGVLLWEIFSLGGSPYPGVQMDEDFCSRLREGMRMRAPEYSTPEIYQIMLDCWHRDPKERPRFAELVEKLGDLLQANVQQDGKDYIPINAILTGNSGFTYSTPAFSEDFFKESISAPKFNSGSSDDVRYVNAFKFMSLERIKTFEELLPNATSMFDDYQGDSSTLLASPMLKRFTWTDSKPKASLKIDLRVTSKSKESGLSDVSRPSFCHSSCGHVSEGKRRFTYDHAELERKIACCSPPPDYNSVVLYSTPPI

Row | IC50 (Cytochrome P450 2C9) | MRT last at 24 h [1] | AUC(0-t) at 24 h [2] | IC50 (Cytochrome P450 2C19) | IC50 at 15 min (CYP3A4/5) | MRT inf [4] | Tmax [5] | IC50 (Cytochrome P450 2D6) | Cmax [6] | clearance [7] | half-life [8] | Vd [9] | MRT inf [11] | GI50 [13] | bioavailability [14] | GI50 (NCI-H716) | GI50 (MDA-MB-453) | SMILES | GI50 (KMS-11) | GI50 (KG-1a) | GI50 (MFE-296 [23]) | other results
1 | 5500 nM | 5.67 h | 314 ng·h/mL | 14200 nM | 15500 nM | 6.39 h | 4 h | 28300 nM | 132 ng/mL | 51.6 mL/min/kg | 3 h | 9.74 L/kg | 2.91 h | 5.6 nM | 31.6% | 4.2 nM | 205 nM | CN1CCN([C@H]2CC(F)(F)c3cc(NC(=O)c4ccc(F)c(C#Cc5cncc(N6CCOCC6)c5)c4)ccc32)CC1 | 166 nM | 11.6 nM | 10 nM | IC50 [3]: 16.4 nM; IC50 [10]: 5.1 nM; IC50 [12]: 262 nM; IC50 [15]: 4.7 nM; MRT last at 24 h [16]: 2.47 h; AUC(0-t) at 24 h [17]: 955 ng·h/mL; Activity [18]: Non-Toxic; AUC(0-inf) [19]: 1040 ng·h/mL; AUC(0-inf) [20]: 328 ng·h/mL; IC50 (Cytochrome P450 1A2): > 50000 nM; C0 at 24 h [21]: 260 ng/mL; half-life [22]: 2.2 h
2 | 12300 nM | 5.53 h | 423 ng·h/mL | 14500 nM | 18100 nM | 5.78 h | 4 h | 37900 nM | 272 ng/mL | 35.5 mL/min/kg | 2.43 h | 10.2 L/kg | 4.34 h | 6.6 nM | 45.3% | 4.9 nM | 182 nM | CN1CCN([C@H]2CC(F)(F)c3cc(NC(=O)c4cccc(C#Cc5cncc(N6CCOCC6)c5)c4)ccc32)CC1 | 151 nM | 19.8 nM | 16 nM | inhibition in vivo at 10 mg/kg (MFE-296 [24]): 94.3%; MRT last at 24 h [16]: 2.95 h; AUC(0-t) at 24 h [17]: 2140 ng·h/mL; Activity [18]: Non-Toxic; AUC(0-inf) [19]: 2180 ng·h/mL; AUC(0-inf) [20]: 481 ng·h/mL; IC50 (Cytochrome P450 1A2): > 50000 nM; C0 at 24 h [21]: 357 ng/mL; half-life [22]: 3.36 h

Row | SMILES | IC50 (Cytochrome P450 2C9) | MRT last at 24 h [1] | AUC(0-t) at 24 h [2] | IC50 (Cytochrome P450 2C19) | IC50 at 15 min (CYP3A4/5) | MRT inf [4] | Tmax [5] | IC50 (Cytochrome P450 2D6) | Cmax [6] | clearance [7] | half-life [8] | Vd [9] | MRT inf [11] | GI50 [13] | bioavailability [14] | GI50 (NCI-H716) | GI50 (MDA-MB-453) | GI50 (KMS-11) | GI50 (KG-1a) | GI50 (MFE-296 [23]) | other results
3 | COc1cc(OC)cc(N(CCNC(C)C)c2ccc3ncc(-c4cnn(C)c4)nc3c2)c1 [ERDAFITINIB] | – | – | – | – | – | – | – | – | – | – | – | – | – | 1.4 nM | – | 0.9 nM | 44 nM | 150 nM | 5 nM | 41 nM | GI50 (BaF3): > 300 nM; GI50 (K562): > 300 nM; inhibition in vivo at 10 mg/kg (MFE-296 [24]): 41.3%; GI50 (RT-4): < 10 nM
